This note sets out measurements from EP4578444A1, “APPLICATION OF BETA-CARYOPHYLLENE FOR TARGETED EPIGENETIC REGULATION AND POTENTIAL PREVENTION OF WATER-OSMOTIC CONDITIONS OF THE MUCOUS MEMBRANES AND EPITHELIA” (SkyLab AG, priority 2023, dated 2025).

In brackets after ≈: the same amount, converted by molar mass.

For data set [1], the system named is skin and mucous membrane keratinocytes. The experiment in a line: MTT cytotoxicity / cell viability of keratinocytes. The data set is classed as cell-based. The conditions noted are these: 70% cell survival. Here is the method: (§1) Beta-caryophyllene was studied for cytotoxicity and assessed for viability of skin and mucous membrane keratinocytes to determine the maximum permissible concentration for external and local application.
(§2) Cell viability was determined colorimetrically using MTT stain (Sigma Chemical, St. Louis, Mo.). The preparation was treated for the test in dimethylsulphoxide culture medium and added to a 96-well plate at serial dilutions ranging from 1.000 to 0.0032 mg/mL using a dilution factor of 3.16. Pre-culture was carried out for 48 hours before the test. Then MTT was added to the culture at a concentration of 0.75 mg/mL (100 µl/well) and incubated for another 4 hours. The contents of the well were removed, and 100 µl of isopropanol was added to solubilize the formed formazan crystals. Absorbance was determined in each well at 570 nm using a Multiskan GO monochromator (Thermo Scientific, Finland). Cell viability was expressed as a percentage and calculated by the equation: % Viable cells = (Absorbance of evaluated product incubated cells)/(Control absorbance) × 100 [formula]
(§3) Three biological replicates were made. Statistical data processing was carried out to calculate the mean, standard deviation, and trend for each biological replicate. For the statistical evaluation ANOVA test was used allowing the measurement of variation of the results, comparing the data between all the groups. […]

A short description of data set [2]: MTT cytotoxicity / cell viability of keratinocytes. The conditions noted are these: keratinocytes, throughout the selected concentration range (0.01-0.3 wt.%), threshold value of 70%, read-out: viability of skin and epithelial keratinocytes. The data set is classed as cell-based. Here is the method:
as §1, §2, §3

In turn, `C=C1CC/C=C(\C)CC[C@@H]2[C@@H]1CC2(C)C` [Beta-caryophyllene] came in with a concentration for an effect of 70% (EC70) in data set [1] of 316.5 µg/mL (≈ 1550 µM). Further, the viability in data set [2] was greater than 70%.
